The source of these data is patent US20240150360A1 (THE REGENTS OF THE UNIVERSITY OF MICHIGAN, priority 2021, published 2024).

One test has as its system HL60. As to the kind of experiment: Cell growth inhibition in HL60. It counts as cell-based. The note with it: Homo sapiens, HL-60, read-out: Cell Growth Inhibition (IC50) HL60.
The next test deals with 22Rv1 cells. As to the kind of experiment: Cell growth inhibition assay (CellTiter-Glo) in 22Rv1. It counts as cell-based, human. The settings on record: Homo sapiens, 22Rv1, 96 h, read-out: Cell Growth Inhibition (IC50) 22Rv1. How it is done: Biological Assays. CBP/p300 degradation activity and cell growth inhibition were evaluated in the human prostate cancer cell line 22Rv1 (ATCC© CRL-2505™) purchased from the American Type Culture Collection (ATCC), Manassas, VA, and maintained and cultured in Dulbecco's Modified Eagle's medium (DMEM) containing 10% fetal bovine serum, 1 unit/ml of penicillin and 1 μg/ml of streptomycin. Cells with 3-8 passages after purchase were used in experiments.
Cell Growth Inhibition Assay Protocol. 22RV1 cells were seeded at a concentration of 4000 cells/well in 100 μl culture medium and 2 μl of test compound (final concentration start from 10 μM and 3 times dilution) into 96 well microplates (Corning 3903). The cell cultures were incubated for 96 h at +37° C. and 5% CO2. The plate and its contents were equilibrated to room temperature for approximately 30 minutes. 100 μl of CellTiter-Glo® 2.0 Reagent equal to the volume of cell culture medium present was added in each well. The contents were mixed for 2 minutes on an orbital shaker. The plate was allowed to incubate at room temperature for 10 minutes. The luminescence was recorded. The data was analyzed by Prism GraphPad 8.
Background: ATP-based viability assays read luminescence as a measure of living cells.

A further test concerns the target T1, P300 (Homo sapiens, UniProt Q09472).
T1 construct: endogenous in cells; host or cells: 22Rv1 (ATCC CRL-2505) human prostate cancer cells
As to the kind of experiment: P300 degradation in 22Rv1 cells (5 h). The format is cell-based. The note with it: 22Rv1 cells, 5 h; for Dmax: read-out: P300 Degradation (22Rv1, 5 h) DCmax. The text has this:
(§1) Biological Assays. […] Cells with 3-8 passages after purchase were used in experiments.

Another test deals with T2, CBP (Homo sapiens, UniProt Q92793).
T2 construct: endogenous in cells; host or cells: 22Rv1 (ATCC CRL-2505) human prostate cancer cells
T2 sequence (Q92793 whole entry): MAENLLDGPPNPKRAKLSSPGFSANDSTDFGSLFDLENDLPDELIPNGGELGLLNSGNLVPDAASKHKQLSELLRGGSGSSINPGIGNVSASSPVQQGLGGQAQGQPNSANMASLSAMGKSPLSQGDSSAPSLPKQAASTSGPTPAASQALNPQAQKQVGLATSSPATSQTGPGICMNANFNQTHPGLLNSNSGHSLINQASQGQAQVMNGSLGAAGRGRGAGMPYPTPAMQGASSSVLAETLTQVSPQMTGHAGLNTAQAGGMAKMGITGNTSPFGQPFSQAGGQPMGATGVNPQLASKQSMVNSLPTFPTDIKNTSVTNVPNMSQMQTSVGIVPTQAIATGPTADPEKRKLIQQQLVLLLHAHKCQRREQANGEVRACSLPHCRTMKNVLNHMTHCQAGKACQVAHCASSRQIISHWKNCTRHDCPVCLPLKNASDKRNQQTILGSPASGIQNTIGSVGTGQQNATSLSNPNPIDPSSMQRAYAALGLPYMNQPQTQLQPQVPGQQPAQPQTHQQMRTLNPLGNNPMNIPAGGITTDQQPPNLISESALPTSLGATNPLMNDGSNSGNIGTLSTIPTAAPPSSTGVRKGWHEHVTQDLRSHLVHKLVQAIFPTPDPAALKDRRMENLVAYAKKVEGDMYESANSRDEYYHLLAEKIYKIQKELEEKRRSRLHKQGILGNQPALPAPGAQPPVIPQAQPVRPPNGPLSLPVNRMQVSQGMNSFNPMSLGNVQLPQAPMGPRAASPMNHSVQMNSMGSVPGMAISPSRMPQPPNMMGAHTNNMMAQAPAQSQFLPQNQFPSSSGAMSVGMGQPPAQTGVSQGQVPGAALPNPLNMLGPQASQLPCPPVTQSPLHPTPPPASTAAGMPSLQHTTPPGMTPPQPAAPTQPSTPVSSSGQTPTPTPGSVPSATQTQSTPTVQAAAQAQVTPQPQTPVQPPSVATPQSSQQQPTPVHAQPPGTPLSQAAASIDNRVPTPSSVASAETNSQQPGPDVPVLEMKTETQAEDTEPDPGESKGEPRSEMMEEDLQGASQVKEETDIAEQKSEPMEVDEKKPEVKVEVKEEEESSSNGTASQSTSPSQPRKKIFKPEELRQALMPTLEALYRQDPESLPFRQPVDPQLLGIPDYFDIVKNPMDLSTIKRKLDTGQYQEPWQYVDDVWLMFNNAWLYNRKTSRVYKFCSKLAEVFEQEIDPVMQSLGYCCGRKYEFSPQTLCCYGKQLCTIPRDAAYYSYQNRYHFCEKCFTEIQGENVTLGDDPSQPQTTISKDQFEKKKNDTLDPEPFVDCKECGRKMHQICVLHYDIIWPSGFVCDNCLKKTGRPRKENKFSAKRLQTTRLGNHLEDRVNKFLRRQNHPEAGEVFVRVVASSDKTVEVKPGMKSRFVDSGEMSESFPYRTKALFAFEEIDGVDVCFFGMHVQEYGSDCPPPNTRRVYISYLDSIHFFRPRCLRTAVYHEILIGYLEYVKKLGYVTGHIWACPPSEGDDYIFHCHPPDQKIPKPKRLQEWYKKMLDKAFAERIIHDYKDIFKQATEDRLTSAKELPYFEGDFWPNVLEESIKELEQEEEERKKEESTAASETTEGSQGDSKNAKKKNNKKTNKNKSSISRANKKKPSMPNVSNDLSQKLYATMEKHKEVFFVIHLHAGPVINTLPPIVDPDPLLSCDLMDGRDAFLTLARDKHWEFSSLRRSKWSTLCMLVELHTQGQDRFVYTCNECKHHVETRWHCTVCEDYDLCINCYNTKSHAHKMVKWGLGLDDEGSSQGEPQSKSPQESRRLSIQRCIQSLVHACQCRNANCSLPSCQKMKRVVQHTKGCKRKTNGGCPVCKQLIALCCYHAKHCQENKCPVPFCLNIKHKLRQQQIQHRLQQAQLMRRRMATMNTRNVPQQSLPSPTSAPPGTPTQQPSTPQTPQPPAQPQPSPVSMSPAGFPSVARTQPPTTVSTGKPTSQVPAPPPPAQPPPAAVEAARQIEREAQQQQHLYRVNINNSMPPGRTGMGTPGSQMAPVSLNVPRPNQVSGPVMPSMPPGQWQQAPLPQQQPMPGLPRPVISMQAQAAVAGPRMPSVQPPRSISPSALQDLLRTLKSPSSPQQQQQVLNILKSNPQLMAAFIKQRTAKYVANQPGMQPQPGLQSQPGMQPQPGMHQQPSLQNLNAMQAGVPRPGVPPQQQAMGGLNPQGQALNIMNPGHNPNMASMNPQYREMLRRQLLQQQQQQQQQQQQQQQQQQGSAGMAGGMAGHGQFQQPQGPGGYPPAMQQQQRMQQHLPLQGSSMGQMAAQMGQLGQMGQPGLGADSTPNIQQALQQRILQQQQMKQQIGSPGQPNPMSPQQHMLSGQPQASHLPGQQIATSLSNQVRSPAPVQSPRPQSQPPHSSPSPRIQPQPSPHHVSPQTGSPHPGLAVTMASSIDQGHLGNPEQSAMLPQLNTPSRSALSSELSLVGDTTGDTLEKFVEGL
As to the kind of experiment: CBP degradation in 22Rv1 cells (5 h). The format is cell-based. The note with it: 22Rv1 cells, 5 h; for Dmax: 22Rv1, 5 h, read-out: CBP Degradation (22Rv1, 5 h) DCmax.
Excerpt: as §1

A value given as a limit tells only on which side of the number the result lay.

T1 sequence (Q09472 whole entry): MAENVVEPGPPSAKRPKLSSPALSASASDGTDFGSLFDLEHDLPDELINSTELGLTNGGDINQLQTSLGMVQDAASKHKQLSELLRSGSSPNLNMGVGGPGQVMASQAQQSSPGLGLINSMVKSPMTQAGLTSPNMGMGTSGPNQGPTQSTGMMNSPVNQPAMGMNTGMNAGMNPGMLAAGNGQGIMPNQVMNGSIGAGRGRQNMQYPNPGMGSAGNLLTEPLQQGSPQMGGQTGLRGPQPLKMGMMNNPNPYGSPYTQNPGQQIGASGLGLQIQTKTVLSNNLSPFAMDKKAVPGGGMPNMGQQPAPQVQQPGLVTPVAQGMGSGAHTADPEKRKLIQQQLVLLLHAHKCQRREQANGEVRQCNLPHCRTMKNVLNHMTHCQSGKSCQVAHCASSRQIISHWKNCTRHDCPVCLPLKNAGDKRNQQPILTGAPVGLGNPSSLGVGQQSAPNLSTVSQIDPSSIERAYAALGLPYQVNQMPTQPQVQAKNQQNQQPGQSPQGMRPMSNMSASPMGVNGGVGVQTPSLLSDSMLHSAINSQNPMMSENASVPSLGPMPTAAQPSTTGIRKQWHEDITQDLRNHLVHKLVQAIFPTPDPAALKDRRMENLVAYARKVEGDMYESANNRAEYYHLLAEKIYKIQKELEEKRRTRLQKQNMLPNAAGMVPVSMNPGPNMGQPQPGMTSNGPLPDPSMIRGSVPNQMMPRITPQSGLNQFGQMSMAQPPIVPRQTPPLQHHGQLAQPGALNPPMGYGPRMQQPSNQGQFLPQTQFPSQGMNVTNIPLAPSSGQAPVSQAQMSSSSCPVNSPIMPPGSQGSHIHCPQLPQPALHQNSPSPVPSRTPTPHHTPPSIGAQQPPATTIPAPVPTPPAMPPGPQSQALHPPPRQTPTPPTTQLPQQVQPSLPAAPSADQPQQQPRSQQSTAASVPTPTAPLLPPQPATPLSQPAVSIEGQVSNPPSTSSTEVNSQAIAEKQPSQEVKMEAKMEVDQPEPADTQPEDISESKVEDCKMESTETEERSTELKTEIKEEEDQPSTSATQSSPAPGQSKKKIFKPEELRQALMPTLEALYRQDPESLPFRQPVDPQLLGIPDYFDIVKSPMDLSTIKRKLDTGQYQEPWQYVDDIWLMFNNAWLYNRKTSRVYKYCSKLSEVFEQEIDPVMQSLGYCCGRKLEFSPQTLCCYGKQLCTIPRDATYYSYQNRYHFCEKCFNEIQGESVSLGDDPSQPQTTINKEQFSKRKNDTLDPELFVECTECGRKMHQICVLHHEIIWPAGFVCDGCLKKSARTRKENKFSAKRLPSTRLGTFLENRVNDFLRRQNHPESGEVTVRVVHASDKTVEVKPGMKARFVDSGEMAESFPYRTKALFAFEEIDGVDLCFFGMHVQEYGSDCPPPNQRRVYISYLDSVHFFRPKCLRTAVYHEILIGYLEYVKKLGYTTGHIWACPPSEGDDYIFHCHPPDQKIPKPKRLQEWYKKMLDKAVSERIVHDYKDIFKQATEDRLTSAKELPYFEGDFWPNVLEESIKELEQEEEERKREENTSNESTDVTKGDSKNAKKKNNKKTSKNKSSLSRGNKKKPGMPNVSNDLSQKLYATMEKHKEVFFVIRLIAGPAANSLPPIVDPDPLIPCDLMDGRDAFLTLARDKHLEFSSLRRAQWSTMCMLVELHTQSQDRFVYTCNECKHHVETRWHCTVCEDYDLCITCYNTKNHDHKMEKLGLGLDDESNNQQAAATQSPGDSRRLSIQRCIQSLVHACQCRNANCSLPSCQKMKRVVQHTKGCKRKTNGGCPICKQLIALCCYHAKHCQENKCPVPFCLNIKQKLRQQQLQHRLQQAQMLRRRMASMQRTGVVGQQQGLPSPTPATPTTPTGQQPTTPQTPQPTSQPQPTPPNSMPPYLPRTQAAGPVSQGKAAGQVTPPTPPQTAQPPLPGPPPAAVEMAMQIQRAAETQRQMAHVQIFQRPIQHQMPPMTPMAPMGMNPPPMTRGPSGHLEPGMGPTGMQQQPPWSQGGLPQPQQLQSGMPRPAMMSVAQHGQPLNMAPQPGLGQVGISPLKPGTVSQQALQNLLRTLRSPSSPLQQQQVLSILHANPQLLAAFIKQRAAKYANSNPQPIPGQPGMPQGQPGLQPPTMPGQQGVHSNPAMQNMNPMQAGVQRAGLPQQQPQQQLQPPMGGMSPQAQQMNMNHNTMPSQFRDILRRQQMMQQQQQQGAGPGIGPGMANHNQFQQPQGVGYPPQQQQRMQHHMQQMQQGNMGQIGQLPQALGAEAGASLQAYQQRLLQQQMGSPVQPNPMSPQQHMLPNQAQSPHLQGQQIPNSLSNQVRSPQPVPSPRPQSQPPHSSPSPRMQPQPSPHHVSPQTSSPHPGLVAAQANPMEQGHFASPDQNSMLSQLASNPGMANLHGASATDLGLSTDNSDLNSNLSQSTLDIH

One may read the IC50 as the concentration that inhibits the measured activity by half. Turning to `CC(=O)N1CCc2c(c(N3CCCc4cc(-c5cnn(C)c5)c(C(F)F)cc43)nn2C[C@H]2CC[C@H](N3Cc4cc5c(cc4C3)C(=O)N(C3CCC(=O)NC3=O)C5=O)CC2)C1` (relative stereo) [CP-039, 6-(-4-((5-acetyl-3-(7-(difluoromethyl)-6-(1-methyl-1H-pyrazol-4-yl)-3,4-dihydroquinolin-1(2H)-yl)-4,5,6,7-tetrahydro-1H-pyrazolo[4,3-c]pyridin-1-yl)methyl)cyclohexyl)-2-(2,6-dioxopiperidin-3-yl)-6,7-dihydropyrrolo[3,4-f]isoindole-1,3(2H,5H)-dione], the IC50 in the test with HL60 is less than 100 nM; in the test on 22Rv1 cells it was less than 1000 nM.
Take `CC(=O)N1CCc2c(c(N3CCCc4cc(-c5cnn(C)c5)c(C(F)F)cc43)nn2C2CCC(N3Cc4cc5c(cc4C3)C(=O)N(C3CCC(=O)NC3=O)C5=O)CC2)C1` (centres unmarked) [CP-037, 6-(4-(5-acetyl-3-(7-(difluoromethyl)-6-(1-methyl-1H-pyrazol-4-yl)-3,4-dihydroquinolin-1(2H)-yl)-4,5,6,7-tetrahydro-1H-pyrazolo[4,3-c]pyridin-1-yl)cyclohexyl)-2-(2,6-dioxopiperidin-3-yl)-6,7-dihydropyrrolo[3,4-f]isoindole-1,3(2H,5H)-dione]: the 50% inhibitory concentration (IC50) with HL60 and in the test with 22Rv1 cells was less than 100 nM throughout.
As to `CC(=O)N1CCc2c(c(N3CCCc4cc(-c5cnn(C)c5)c(C(F)F)cc43)nn2C2CCN(C(=O)CN3Cc4cc5c(cc4C3)C(=O)N(C3CCC(=O)NC3=O)C5=O)CC2)C1` (centres unmarked) [CP-005, 6-(2-(4-(5-acetyl-3-(7-(difluoromethyl)-6-(1-methyl-1H-pyrazol-4-yl)-3,4-dihydroquinolin-1(2H)-yl)-4,5,6,7-tetrahydro-1H-pyrazolo[4,3-c]pyridin-1-yl)piperidin-1-yl)-2-oxoethyl)-2-(2,6-dioxopiperidin-3-yl)-6,7-dihydropyrrolo[3,4-f]isoindole-1,3(2H,5H)-dione], the half-maximal inhibitory concentration (IC50) in the test with HL60 and with 22Rv1 cells was less than 100 nM each time.
What is called DC50 is the midpoint of the concentration-degradation curve. A higher DC50 goes with a less potent degrader. As to `CC(=O)N1CCc2c(c(N3CCCc4cc(-c5cnn(C)c5)c(C(F)F)cc43)nn2C2CCC(N3CC4(Cc5cc6c(cc5C4)C(=O)N(C4CCC(=O)NC4=O)C6=O)C3)CC2)C1` (centres unmarked) [CP-086, 1-(4-(5-acetyl-3-(7-(difluoromethyl)-6-(1-methyl-1H-pyrazol-4-yl)-3,4-dihydroquinolin-1(2H)-yl)-4,5,6,7-tetrahydro-1H-pyrazolo[4,3-c]pyridin-1-yl)cyclohexyl)-2′-(2,6-dioxopiperidin-3-yl)-5′,7′-dihydro-1′H-spiro[azetidine-3,6′-cyclopenta[f]isoindole]-1′,3′(2′H)-dione], on P300, the 50% degradation concentration (DC50) was less than 10 nM and the Dmax is greater than 70%. Moreover, on CBP, the Dmax was greater than 70% and the DC50 was less than 10 nM.
`CC(=O)N1CCc2c(c(N3CCCc4cc(-c5cnn(C)c5)c(C(F)F)cc43)nn2C[C@H]2CC[C@H](CN3Cc4cc5c(cc4C3)C(=O)N(C3CCC(=O)NC3=O)C5=O)CC2)C1` (some centres unmarked) [CP-043, 6-((4-((5-acetyl-3-(7-(difluoromethyl)-6-(1-methyl-1H-pyrazol-4-yl)-3,4-dihydroquinolin-1(2H)-yl)-4,5,6,7-tetrahydro-1H-pyrazolo[4,3-c]pyridin-1-yl)methyl)cyclohexyl)methyl)-2-(2,6-dioxopiperidin-3-yl)-6,7-dihydropyrrolo[3,4-f]isoindole-1,3(2H,5H)-dione]: the concentration for half-maximal inhibition (IC50) was less than 1000 nM in the test on HL60 and less than 10000 nM in the test on 22Rv1 cells.
For `CC(=O)N1CCc2c(c(N3CCCc4cc(-c5cnn(C)c5)c(C(F)F)cc43)nn2C[C@H]2CC[C@@H](N3Cc4cc5c(cc4C3)C(=O)N(C3CCC(=O)NC3=O)C5=O)CC2)C1` (some centres unmarked) [CP-040, 6-(4-((5-acetyl-3-(7-(difluoromethyl)-6-(1-methyl-1H-pyrazol-4-yl)-3,4-dihydroquinolin-1(2H)-yl)-4,5,6,7-tetrahydro-1H-pyrazolo[4,3-c]pyridin-1-yl)methyl)cyclohexyl)-2-(2,6-dioxopiperidin-3-yl)-6,7-dihydropyrrolo[3,4-f]isoindole-1,3(2H,5H)-dione] the same measures were less than 100 nM and less than 1000 nM.
Consider `CC(=O)N1CCc2c(c(N3CCCc4cc(-c5cnn(C)c5)c(C(F)F)cc43)nn2C2CCC(N3CCc4ccc5c(c4C3)C(=O)N(C3CCC(=O)NC3=O)C5=O)CC2)C1` (centres unmarked) [CP-087, 8-((1r,4r)-4-(5-acetyl-3-(7-(difluoromethyl)-6-(1-methyl-1H-pyrazol-4-yl)-3,4-dihydroquinolin-1(2H)-yl)-4,5,6,7-tetrahydro-1H-pyrazolo[4,3-c]pyridin-1-yl)cyclohexyl)-2-(2,6-dioxopiperidin-3-yl)-6,7,8,9-tetrahydro-1H-pyrrolo[3,4-h]isoquinoline-1,3(2H)-dione], for which the half-maximal degradation concentration (DC50) at P300 and on CBP was greater than 1000 nM throughout. The Dmax on P300 and on CBP was less than 50% throughout.
For `CC(=O)N1CCc2c(c(N3CCCc4cc(-c5cnn(C)c5)c(C(F)F)cc43)nn2[C@H]2CC[C@@H](CN3Cc4cc5c(cc4C3)C(=O)N(C3CCC(=O)NC3=O)C5=O)CC2)C1` (relative stereo) [CP-046, 6-((4-(5-acetyl-3-(7-(difluoromethyl)-6-(1-methyl-1H-pyrazol-4-yl)-3,4-dihydroquinolin-1(2H)-yl)-4,5,6,7-tetrahydro-1H-pyrazolo[4,3-c]pyridin-1-yl)cyclohexyl)methyl)-2-(2,6-dioxopiperidin-3-yl)-6,7-dihydropyrrolo[3,4-f]isoindole-1,3(2H,5H)-dione], the concentration for half-maximal inhibition (IC50) in the test with HL60 and in the test with 22Rv1 cells was less than 100 nM throughout.
In the case of `CC(=O)N1CCc2c(c(N3CCCc4cc(-c5cnn(C)c5)c(C(F)F)cc43)nn2[C@H]2CC[C@H](CN3CCc4ccc5c(c4C3)C(=O)N(C3CCC(=O)NC3=O)C5=O)CC2)C1` (some centres unmarked) [CP-089, 8-(((1r,4r)-4-(5-acetyl-3-(7-(difluoromethyl)-6-(1-methyl-1H-pyrazol-4-yl)-3,4-dihydroquinolin-1(2H)-yl)-4,5,6,7-tetrahydro-1H-pyrazolo[4,3-c]pyridin-1-yl)cyclohexyl)methyl)-2-(2,6-dioxopiperidin-3-yl)-6,7,8,9-tetrahydro-1H-pyrrolo[3,4-h]isoquinoline-1,3(2H)-dione], at P300, the DC50 was greater than 1000 nM and the Dmax was less than 50%. In addition, on CBP, the Dmax is less than 50% and the DC50 is greater than 1000 nM.
`CC(=O)N1CCc2c(c(N3CCCc4cc(-c5cnn(C)c5)c(C(F)F)cc43)nn2C2CCC(CCN3Cc4cc5c(cc4C3)C(=O)N(C3CCC(=O)NC3=O)C5=O)CC2)C1` (centres unmarked) [CP-044, 6-(2-(4-(5-acetyl-3-(7-(difluoromethyl)-6-(1-methyl-1H-pyrazol-4-yl)-3,4-dihydroquinolin-1(2H)-yl)-4,5,6,7-tetrahydro-1H-pyrazolo[4,3-c]pyridin-1-yl)cyclohexyl)ethyl)-2-(2,6-dioxopiperidin-3-yl)-6,7-dihydropyrrolo[3,4-f]isoindole-1,3(2H,5H)-dione]: the IC50 with HL60 and in the test with 22Rv1 cells was less than 100 nM each time.
Take `CC(=O)N1CCc2c(c(N3CCCc4cc(-c5cnn(C)c5)c(C(F)F)cc43)nn2[C@H]2CC[C@H](CN3Cc4cc5c(cc4C3)C(=O)N(C3CCC(=O)NC3=O)C5=O)CC2)C1` (some centres unmarked) [CP-047, 6-((4-(5-acetyl-3-(7-(difluoromethyl)-6-(1-methyl-1H-pyrazol-4-yl)-3,4-dihydroquinolin-1(2H)-yl)-4,5,6,7-tetrahydro-1H-pyrazolo[4,3-c]pyridin-1-yl)cyclohexyl)methyl)-2-(2,6-dioxopiperidin-3-yl)-6,7-dihydropyrrolo[3,4-f]isoindole-1,3(2H,5H)-dione]: the half-inhibitory concentration (IC50) with HL60 and in the test on 22Rv1 cells was less than 100 nM each time.
Turning to `CC(=O)N1CCc2c(c(N3CCCc4cc(-c5cnn(C)c5)c(C(F)F)cc43)nn2[C@H]2CC[C@H](CN3CC4(Cc5cc6c(cc5C4)C(=O)N(C4CCC(=O)NC4=O)C6=O)C3)CC2)C1` (some centres unmarked) [CP-088, 1-(((1r,4r)-4-(5-acetyl-3-(7-(difluoromethyl)-6-(1-methyl-1H-pyrazol-4-yl)-3,4-dihydroquinolin-1(2H)-yl)-4,5,6,7-tetrahydro-1H-pyrazolo[4,3-c]pyridin-1-yl)cyclohexyl)methyl)-2′-(2,6-dioxopiperidin-3-yl)-5′,7′-dihydro-1′H-spiro[azetidine-3,6′-cyclopenta[f]isoindole]-1′,3′(2′H)-dione], the DC50 at P300 and on CBP was less than 10 nM throughout. The Dmax on P300 and on CBP was greater than 70% each time.
